Measured values reported in patent US8124637B2, “Anthra [1, 2-d]imidazole-6,11-dione derivatives, preparation method and application thereof” (National Defense Medical Center, priority 2010, dated 2012).

What was measured:
Format in all cases: cell-based, human
DU145 = test: NCI 60-cell drug screen, one dose; conditions: Prostate Cancer DU145, 1.00E−5 Molar
Procedure: (§1) In brief, cellular protein levels were determined after 48 hours of drug exposure by sulforhodamine B colorimetry.
(§2) The screening system in United State National Cancer Institute (NCI) consists of 60 kinds of different human cancer cells, which can be used to assay the growth-inhibiting ability or cell toxicity of a compound against various cancer and tumor at a certain concentration. The NCI had selected 6 compounds synthesized above, and performed cell toxicity assay against 60 kinds of cancer cell strains (Table 2) (DTP Human Tumor Cell Line Screen), in which each compound was assayed at a certain concentration to observe its inhibition ability or cell toxicity against various kinds of cancer and tumor.

MDA-MB-468 = test: NCI 60-cell drug screen, one dose; conditions: Breast Cancer MDA-MB-468, 1.00E−5 Molar
Procedure: as §1, §2

NCI-H23 = test: NCI 60-cell drug screen, one dose; conditions: Non-Small Cell Lung Cancer NCI-H23, 1.00E−5 Molar
Procedure: as §1, §2

OVCAR-4 = test: NCI 60-cell drug screen, one dose; conditions: Ovarian Cancer OVCAR-4, 1.00E−5 Molar
Procedure: as §1, §2

OVCAR-5 = test: NCI 60-cell drug screen, one dose; conditions: Ovarian Cancer OVCAR-5, 1.00E−5 Molar
Procedure: as §1, §2

HT29 = test: NCI 60-cell drug screen, one dose; conditions: Colon Cancer HT29, 1.00E−5 Molar
Procedure: as §1, §2

OVCAR-3 = test: NCI 60-cell drug screen, one dose; conditions: Ovarian Cancer OVCAR-3, 1.00E−5 Molar
Procedure: as §1, §2

HOP-62 = test: NCI 60-cell drug screen, one dose; conditions: Non-Small Cell Lung Cancer HOP-62, 1.00E−5 Molar
Procedure: as §1, §2

SN12C = test: NCI 60-cell drug screen, one dose; conditions: Renal Cancer SN12C, 1.00E−5 Molar
Procedure: as §1, §2

SNB-75 = test: NCI 60-cell drug screen, one dose; conditions: CNS Cancer SNB-75, 1.00E−5 Molar
Procedure: as §1, §2

ACHN = test: NCI 60-cell drug screen, one dose; conditions: Renal Cancer ACHN, 1.00E−5 Molar
Procedure: as §1, §2

[1] = NCI 60-cell drug screen, one dose; conditions: Renal Cancer A489, 1.00E−5 Molar
Procedure: as §1, §2

SF-268 = test: NCI 60-cell drug screen, one dose; conditions: CNS Cancer SF-268, 1.00E−5 Molar
Procedure: as §1, §2

HOP-92 = test: NCI 60-cell drug screen, one dose; conditions: Non-Small Cell Lung Cancer HOP-92, 1.00E−5 Molar
Procedure: as §1, §2

T-47D = test: NCI 60-cell drug screen, one dose; conditions: Breast Cancer T-47D, 1.00E−5 Molar
Procedure: as §1, §2

UACC-62 = test: NCI 60-cell drug screen, one dose; conditions: Melanoma UACC-62, 1.00E−5 Molar
Procedure: as §1, §2

IGROV1 = test: NCI 60-cell drug screen, one dose; conditions: Ovarian Cancer IGROV1, 1.00E−5 Molar
Procedure: as §1, §2

HS 578-T = test: NCI 60-cell drug screen, one dose; conditions: Breast Cancer HS 578-T, 1.00E−5 Molar
Procedure: as §1, §2

HCT-15 = test: NCI 60-cell drug screen, one dose; conditions: Colon Cancer HCT-15, 1.00E−5 Molar
Procedure: as §1, §2

UO-31 = test: NCI 60-cell drug screen, one dose; conditions: Renal Cancer UO-31, 1.00E−5 Molar
Procedure: as §1, §2

SW-620 = test: NCI 60-cell drug screen, one dose; conditions: Colon Cancer SW-620, 1.00E−5 Molar
Procedure: as §1, §2

MALME-3M = test: NCI 60-cell drug screen, one dose; conditions: Melanoma MALME-3M, 1.00E−5 Molar
Procedure: as §1, §2

786-0 = test: NCI 60-cell drug screen, one dose; conditions: Renal Cancer 786-0, 1.00E−5 Molar
Procedure: as §1, §2

NCI-H460 = test: NCI 60-cell drug screen, one dose; conditions: Non-Small Cell Lung Cancer NCI-H460, 1.00E−5 Molar
Procedure: as §1, §2

U251 = test: NCI 60-cell drug screen, one dose; conditions: CNS Cancer U251, 1.00E−5 Molar
Procedure: as §1, §2

TK-10 = test: NCI 60-cell drug screen, one dose; conditions: Renal Cancer TK-10, 1.00E−5 Molar
Procedure: as §1, §2

NCI-H522 = test: NCI 60-cell drug screen, one dose; conditions: Non-Small Cell Lung Cancer NCI-H522, 1.00E−5 Molar
Procedure: as §1, §2

[2] = system: hTERT promoter (PhTERT) expression; test: SEAP assay (PhTERT-SEAP reporter, H1299); conditions: Homo sapiens, NCI-H1299, PhTERT-SEAP (H1299); for activity at 1 µM: read-out: Relative SEAP activity (%); for activity at 10 µM / activity at 100 µM: read-out: Relative SEAP activity (%) (converted)
Outline: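 Stable H1299 clones carrying the hTERT promoter (−3338 to +1) driving SEAP were treated with varying drug amounts for 24 h at 37° C. Heat-treated media (65° C, 10 min) were assayed with 12 mM p-nitrophenyl phosphate in diethanolamine buffer; rate of A405 increase gave SEAP activity.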

SMILES: CN(CCc1ccccn1)Cc1nc2ccc3c(c2[nH]1)C(=O)c1ccccc1C3=O [CL07, 2-((N-methyl-2-(pyridin-2-yl)ethanamino)methyl)-1H-anthra[1,2-d]imidazole-6,11-dione]
- Growth Percent (DU145): 83.70%
- Growth Percent (MDA-MB-468): 77.09%
- Growth Percent (NCI-H23): 90.81%
- Growth Percent (OVCAR-4): 80.99%
- Growth Percent (OVCAR-5): 109.14%
- Growth Percent (HT29): 84.18%
- Growth Percent (OVCAR-3): 83.57%
- Growth Percent (HOP-62): 105.37%
- Growth Percent (SN12C): 91.19%
- Growth Percent (SNB-75): 81.62%
- Growth Percent (ACHN): 80.20%
- Growth Percent [1]: 69.60%
- Growth Percent (SF-268): 85.87%
- Growth Percent (HOP-92): 101.41%
- Growth Percent (T-47D): 68.45%
- Growth Percent (UACC-62): 89.67%
- Growth Percent (IGROV1): 54.26%
- Growth Percent (HS 578-T): 108.96%
- Growth Percent (HCT-15): 80.78%
- Growth Percent (UO-31): 49.49%
- Growth Percent (SW-620): 100.52%
- Growth Percent (MALME-3M): 107.00%
- Growth Percent (786-0): 89.74%
- Growth Percent (NCI-H460): 90.27%
- Growth Percent (U251): 81.83%
- Growth Percent (TK-10): 130.74%
- Growth Percent (NCI-H522): 86.39%
- activity at 1 µM [2]: 96.5 ± 5.53%
- activity at 10 µM [2]: < 50%
- activity at 100 µM [2]: -3.16%

SMILES: CN1CCN(Cc2nc3ccc4c(c3[nH]2)C(=O)c2ccccc2C4=O)CC1 [CL24, 2-((4-methylpiperazin-1-yl)methyl)-1H-anthra[1,2-d]imidazole-6,11-dione]
- Growth Percent (DU145): 60.08%
- Growth Percent (MDA-MB-468): 71.59%
- Growth Percent (NCI-H23): 72.97%
- Growth Percent (OVCAR-4): 50.98%
- Growth Percent (OVCAR-5): 97.72%
- Growth Percent (HT29): 22.64%
- Growth Percent (OVCAR-3): 52.79%
- Growth Percent (HOP-62): 60.84%
- Growth Percent (SN12C): 48.50%
- Growth Percent (SNB-75): 69.87%
- Growth Percent (ACHN): 33.08%
- Growth Percent [1]: 69.36%
- Growth Percent (SF-268): 51.16%
- Growth Percent (HOP-92): 9.17%
- Growth Percent (T-47D): 97.08%
- Growth Percent (UACC-62): 81.12%
- Growth Percent (IGROV1): 12.05%
- Growth Percent (HS 578-T): 51.48%
- Growth Percent (HCT-15): 44.98%
- Growth Percent (UO-31): 22.93%
- Growth Percent (SW-620): 44.22%
- Growth Percent (MALME-3M): 89.63%
- Growth Percent (786-0): 59.13%
- Growth Percent (NCI-H460): 57.35%
- Growth Percent (U251): 65.41%
- Growth Percent (TK-10): 73.05%
- Growth Percent (NCI-H522): 64.61%
- activity at 1 µM [2]: 106 ± 2.94%
- activity at 10 µM [2]: 23.2%
- activity at 100 µM [2]: 6.23%
